Series [1] deals with Mitogen-activated protein kinase 14 (Rattus norvegicus, UniProt P70618). The experiment in a line: Inhibitory potency evaluated against rat p38 kinase.
For series [2], the target named is T1, RAF proto-oncogene serine/threonine-protein kinase (Homo sapiens, UniProt P04049). Nature of the series: Inhibition of RAF kinase.
Series [3] has as its target Mitogen-activated protein kinase 11 (Homo sapiens, UniProt Q15759). Nature of the series: Inhibition of Mitogen-activated protein kinase p38 beta.
Series [4] is filed under the species Rattus norvegicus. The experiment in a line: Inhibition of secondary paw swelling in rat adjuvant arthritis model. Format: functional.
In series [5] the target is T2, Mitogen-activated protein kinase 9 (Homo sapiens, UniProt P45984). The experiment in a line: Inhibition of c-Jun N-terminal kinase 2-beta 1.
T2 sequence (P45984 whole entry): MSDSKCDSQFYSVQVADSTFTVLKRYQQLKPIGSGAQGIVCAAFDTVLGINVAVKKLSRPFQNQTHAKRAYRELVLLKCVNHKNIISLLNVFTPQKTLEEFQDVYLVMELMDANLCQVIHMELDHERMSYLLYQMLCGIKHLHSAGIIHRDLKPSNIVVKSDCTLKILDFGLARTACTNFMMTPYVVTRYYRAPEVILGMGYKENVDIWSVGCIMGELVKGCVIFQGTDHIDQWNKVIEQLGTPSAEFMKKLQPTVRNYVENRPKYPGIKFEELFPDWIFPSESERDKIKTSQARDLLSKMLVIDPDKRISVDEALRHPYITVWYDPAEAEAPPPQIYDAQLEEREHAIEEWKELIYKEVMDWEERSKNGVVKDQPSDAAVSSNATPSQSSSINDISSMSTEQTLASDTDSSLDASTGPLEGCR
Series [6] addresses T2, Mitogen-activated protein kinase 9. Nature of the series: Inhibition of c-Jun N-terminal kinase 2-alpha 2.
Series [7] addresses T1, RAF proto-oncogene serine/threonine-protein kinase. Nature of the series: Inhibition of RAF kinase at 1 uM.
Series [8] in a line: Pharmacokinetic parameter area under curve was determined at 3 mg/kg po dose in rats. Format: ADME, organism-based. Further details: dose 3 mg/kg, route oral. The following applies: rat, in vivo.
The target in series [9] is Mitogen-activated protein kinase 14 (Homo sapiens, UniProt Q16539). Nature of the series: Inhibition of Mitogen-activated protein kinase p38 alpha.
Sequence of Mitogen-activated protein kinase 14 (Homo sapiens, UniProt Q16539) (Q16539 whole entry): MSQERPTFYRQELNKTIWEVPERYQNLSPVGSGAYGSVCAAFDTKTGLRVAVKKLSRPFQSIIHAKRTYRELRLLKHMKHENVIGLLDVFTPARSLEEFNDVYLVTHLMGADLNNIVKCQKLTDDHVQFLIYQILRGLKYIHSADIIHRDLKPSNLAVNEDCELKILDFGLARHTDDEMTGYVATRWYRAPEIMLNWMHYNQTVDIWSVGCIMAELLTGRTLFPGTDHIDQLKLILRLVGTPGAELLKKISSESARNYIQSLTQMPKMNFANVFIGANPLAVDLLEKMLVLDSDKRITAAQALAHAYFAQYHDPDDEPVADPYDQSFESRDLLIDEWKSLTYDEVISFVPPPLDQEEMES
Series [10] addresses T3, Mitogen-activated protein kinase 12 (Homo sapiens) (UniProt P53778).
T3 sequence (whole entry): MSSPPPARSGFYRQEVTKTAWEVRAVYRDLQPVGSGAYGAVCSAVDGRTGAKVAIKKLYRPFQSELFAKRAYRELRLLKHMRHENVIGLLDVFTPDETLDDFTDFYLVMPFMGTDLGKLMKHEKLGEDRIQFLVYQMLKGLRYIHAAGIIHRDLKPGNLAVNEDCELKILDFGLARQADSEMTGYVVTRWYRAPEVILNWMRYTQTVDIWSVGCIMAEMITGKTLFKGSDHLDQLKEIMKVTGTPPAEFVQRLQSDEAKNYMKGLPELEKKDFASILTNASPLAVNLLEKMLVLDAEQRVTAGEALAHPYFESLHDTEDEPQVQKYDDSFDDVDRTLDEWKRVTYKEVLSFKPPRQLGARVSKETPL
Nature of the series: Inhibition of Mitogen-activated protein kinase p38 gamma at 25 uM.

Series [11] has as its target T4, Mitogen-activated protein kinase 8 (Homo sapiens, UniProt P45983). Nature of the series: Inhibition of c-Jun N-terminal kinase 1-alpha 1 at 20 uM.
Series [12] in a line: Pharmacokinetic parameter area under curve was determined at 5 mg/kg i.v. dose in rats. Further details: dose 5 mg/kg, route intravenous. It counts as ADME, organism-based. The settings on record: rat, in vivo, iv.
Series [13] can be described thus: Pharmacokinetic parameter area under curve was determined at 2 mg/kg i.v. dose in rats. Format: ADME, organism-based. Further details: dose 2 mg/kg, route intravenous. The following applies: rat, in vivo, iv.
Series [14] can be described thus: Pharmacokinetic parameter area under curve was determined at 10 mg/kg po dose in rats. It counts as ADME, organism-based. Further details: dose 10 mg/kg, route oral. The settings on record: rat, in vivo.
Series [15] can be described thus: Bioavailability was determined at 3 mg/kg po dose in rats. Format: ADME, organism-based. The following applies: rat, in vivo.
Series [16] is described as follows: Pharmacokinetic parameter half-life was determined at 2 mg/kg i.v. dose in rats. It counts as ADME, organism-based. Further details: dose 2 mg/kg, route intravenous. The settings on record: rat, in vivo, iv.
Series [17] in a line: Pharmacokinetic parameter half-life was determined at 5 mg/kg i.v. dose in rats. Format: ADME, organism-based. Further details: dose 5 mg/kg, route intravenous. The following applies: rat, in vivo, iv.
Series [18] is described as follows: T max was determined at 3 mg/kg po dose in rats. It counts as ADME, organism-based. Further details: dose 3 mg/kg, route oral. The settings on record: rat, in vivo.
Series [19] is described as follows: Pharmacokinetic parameter Vdss was determined at 5 mg/kg i.v. dose in rats. Further details: dose 5 mg/kg, route intravenous. Format: ADME, organism-based. The settings on record: rat, in vivo, iv, read-out: Vdss.
The nature of series [20]: C max was determined at 10 mg/kg po dose in rats. It counts as ADME, organism-based. Further details: dose 10 mg/kg, route oral. The settings on record: rat, in vivo.
Series [21] is described as follows: Pharmacokinetic parameter half-life was determined at 3 mg/kg po dose in rats. Format: ADME, organism-based. Further details: dose 3 mg/kg, route oral. The settings on record: rat, in vivo.
Series [22] concerns Rattus norvegicus. The experiment in a line: Inhibition of secondary paw swelling in rat adjuvant arthritis model at 20 mg/kg/ b.i.d. Format: functional. The settings on record: intraduodenal.
The nature of series [23]: C max was determined at 3 mg/kg po dose in rats. Format: ADME, organism-based. The settings on record: rat, in vivo. On the set-up: dose 3 mg/kg, route oral.
Series [24] is described as follows: Pharmacokinetic parameter Vdss was determined at 2 mg/kg i.v. dose in rats. Format: ADME, organism-based. Further details: dose 2 mg/kg, route intravenous. The following applies: rat, in vivo, iv, read-out: Vdss.
Series [25] has as its target T3, Mitogen-activated protein kinase 12 (Homo sapiens). The following applies: 50 uM.
Description: Inhibition of Mitogen-activated protein kinase p38 gamma at 50 uM
The nature of series [26]: T max was determined at 10 mg/kg po dose in rats. It counts as ADME, organism-based. Further details: dose 10 mg/kg, route oral. The settings on record: rat, in vivo.
The nature of series [27]: Pharmacokinetic parameter half-life was determined at 10 mg/kg po dose in rats. Format: ADME, organism-based. On the set-up: dose 10 mg/kg, route oral. The settings on record: rat, in vivo.
Series [28] addresses T4, Mitogen-activated protein kinase 8. Nature of the series: Inhibition of c-Jun N-terminal kinase 1-alpha 1.
Series [29] deals with Rattus norvegicus. The experiment in a line: Pharmacokinetic parameter plasma clearance was determined at 2 mg/kg i.v. dose in rats. Format: ADME, organism-based. Further details: dose 2 mg/kg, route intravenous. The settings on record: in vivo, iv.
In series [30] the test system is Rattus norvegicus. Nature of the series: Pharmacokinetic parameter plasma clearance was determined at 5 mg/kg i.v. dose in rats. Format: ADME, organism-based. On the set-up: dose 5 mg/kg, route intravenous. The following applies: in vivo, iv.

Molecules are shown by their SMILES. Where only a bound is given, the exact number is not on record here.

Sequence of Mitogen-activated protein kinase 14 (Rattus norvegicus, UniProt P70618) (P70618 whole entry): as the sequence (Q16539 whole entry) above, with I17V, L48H, T263A, D321E, L332F counted along it
T1 sequence (P04049 whole entry): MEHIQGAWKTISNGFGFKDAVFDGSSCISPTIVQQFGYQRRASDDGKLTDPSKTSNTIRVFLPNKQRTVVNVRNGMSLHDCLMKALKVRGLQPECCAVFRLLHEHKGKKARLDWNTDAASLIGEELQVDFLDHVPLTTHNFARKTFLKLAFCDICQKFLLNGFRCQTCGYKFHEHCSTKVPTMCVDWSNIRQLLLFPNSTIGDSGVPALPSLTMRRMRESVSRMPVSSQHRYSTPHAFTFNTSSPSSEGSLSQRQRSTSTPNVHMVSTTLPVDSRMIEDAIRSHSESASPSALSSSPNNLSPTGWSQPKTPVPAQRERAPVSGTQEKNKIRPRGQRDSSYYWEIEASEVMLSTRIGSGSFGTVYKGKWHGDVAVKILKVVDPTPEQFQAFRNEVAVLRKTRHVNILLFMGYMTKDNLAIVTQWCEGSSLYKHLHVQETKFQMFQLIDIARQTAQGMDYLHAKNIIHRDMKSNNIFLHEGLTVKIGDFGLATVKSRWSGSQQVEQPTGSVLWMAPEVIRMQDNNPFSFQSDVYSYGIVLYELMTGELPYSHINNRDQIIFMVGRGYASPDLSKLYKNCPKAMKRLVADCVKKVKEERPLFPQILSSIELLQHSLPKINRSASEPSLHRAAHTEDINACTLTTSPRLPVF
T4 sequence (P45983 whole entry): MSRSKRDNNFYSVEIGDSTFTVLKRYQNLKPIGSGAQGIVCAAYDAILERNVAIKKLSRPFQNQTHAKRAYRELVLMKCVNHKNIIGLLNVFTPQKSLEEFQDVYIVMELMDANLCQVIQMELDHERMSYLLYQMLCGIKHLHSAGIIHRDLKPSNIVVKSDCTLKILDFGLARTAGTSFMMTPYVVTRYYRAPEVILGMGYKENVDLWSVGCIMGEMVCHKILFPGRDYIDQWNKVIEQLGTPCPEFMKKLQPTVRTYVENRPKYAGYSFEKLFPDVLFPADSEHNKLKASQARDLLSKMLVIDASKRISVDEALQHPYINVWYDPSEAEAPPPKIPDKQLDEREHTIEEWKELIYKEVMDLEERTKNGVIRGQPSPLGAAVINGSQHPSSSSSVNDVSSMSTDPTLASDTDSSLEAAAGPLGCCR
Sequence of Mitogen-activated protein kinase 11 (Q15759 whole entry): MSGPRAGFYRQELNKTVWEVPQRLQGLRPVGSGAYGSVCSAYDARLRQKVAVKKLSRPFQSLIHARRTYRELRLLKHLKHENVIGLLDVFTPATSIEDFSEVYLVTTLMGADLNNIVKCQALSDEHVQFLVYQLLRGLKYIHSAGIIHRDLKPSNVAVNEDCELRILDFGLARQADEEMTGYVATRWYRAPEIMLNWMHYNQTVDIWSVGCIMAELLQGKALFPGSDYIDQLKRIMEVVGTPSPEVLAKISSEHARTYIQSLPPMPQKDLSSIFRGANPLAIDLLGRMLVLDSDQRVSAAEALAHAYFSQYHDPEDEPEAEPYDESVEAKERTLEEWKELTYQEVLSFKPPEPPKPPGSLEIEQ

In [1], `Clc1ccc(-c2[nH]c(-c3ccccc3)cc2-c2ccncc2)cc1Cl` yielded an IC50 of 30 nM.

Regarding `Clc1ccc(-c2[nH]c(-c3ccccc3)cc2-c2ccncc2)cc1`, the IC50 in [1] was 18 nM.

As for `Fc1ccc(-c2oc(-c3ccc(Cl)cc3)cc2-c2ccncc2)cc1`, in series [1], the IC50 was determined as 630 nM.

In the case of `CS(=O)(=O)c1ccc(-c2cc(-c3ccncc3)c(-c3ccc(F)cc3)[nH]2)cc1`, the IC50 in [2] came to 500 nM; in series [1] it was 9.8 nM; in series [3], 10 nM; in series [5], 1080 nM; in series [6] it was 6850 nM; in series [9], 9 nM. The ED50 in [4] (Rattus norvegicus, read-out: ID50 (the source's name)) came out at 7.4 mg/kg/day. Further, the figures for the inhibition in [7], in series [10] and in series [11] were 50%, 37% and 50%, respectively. Also, the AUC in [8] was 5.8 µM·h; in series [12] it was 32.6 µM·h; in series [13], 6.18 µM·h; in [14], 95.7 µM·h.

For `Clc1cccc(-c2[nH]c(-c3ccccc3)cc2-c2ccncc2)c1`, inhibition in [1] was half-maximal at 29 nM (IC50).

`COc1ccc(OC)c(-c2cc(-c3ccncc3)c(-c3ccc(F)cc3)[nH]2)c1` yielded an IC50 in series [1] of 1700 nM.

In series [1], `Fc1ccc(-c2[nH]c(-c3ccccc3)cc2-c2ccncc2)c(F)c1` had an IC50 of 29 nM.

For `COc1ccc(-c2cc(-c3ccncc3)c(-c3ccccc3)[nH]2)cc1`, inhibition in [1] was half-maximal at 280 nM (IC50).

`CSc1ccc(-c2[nH]c(-c3ccccc3)cc2-c2ccncc2)cc1`: 690 nM corresponded to half-maximal inhibition in series [1] (IC50).

In series [1], `Cc1cc(-c2cc(-c3ccc([S+](C)[O-])cc3)[nH]c2-c2ccc(F)cc2)ccn1` (configuration not stated) registered an IC50 of 6 nM.

The compound `Fc1ccc(-c2cc(-c3ccncc3)c(-c3ccccc3)[nH]2)cc1` showed an IC50 in series [1] of 17 nM.

With `Clc1ccccc1-c1[nH]c(-c2ccccc2)cc1-c1ccncc1`, in [1], the IC50 came out at 500 nM.

In series [1], `Fc1ccc(-c2[nH]c(-c3ccccc3)cc2-c2ccncc2)cc1` gave an IC50 of 12 nM.

As for `CCOC(=O)c1ccc(-c2cc(-c3ccncc3)c(-c3ccccc3)[nH]2)cc1`, the IC50 in series [1] amounted to 130 nM.

In series [1], `Cc1cnccc1-c1cc(-c2ccc([S+](C)[O-])cc2)[nH]c1-c1ccc(F)cc1` (configuration not stated) had an IC50 of 260 nM.

In turn, `O=[N+]([O-])c1ccc(-c2cc(-c3ccncc3)c(-c3ccccc3)[nH]2)cc1` showed an IC50 in series [1] of 6.1 nM.

`Fc1ccccc1-c1cc(-c2ccncc2)c(-c2ccccc2)[nH]1` yielded an IC50 in series [1] of 34 nM.

For the compound `Clc1ccc(-c2cc(-c3ccncc3)c(-c3ccccc3)[nH]2)cc1`, the IC50 in series [1] stood at 510 nM.

`Fc1ccc(-c2cc(-c3ccc(Cl)cc3)oc2-c2ccncc2)cc1` gave an IC50 in series [1] of 530 nM.

For `c1ccc(-c2cc(-c3ccncc3)c(-c3ccoc3)[nH]2)cc1`, the IC50 in series [1] is 660 nM.

`CSc1ccc(-c2cc(-c3ccncc3)c(-c3ccc(F)cc3)[nH]2)cc1` displayed an IC50 in series [1] of 44 nM.

With `Fc1ccc(-c2[nH]c(-c3ccc(Cl)cc3)cc2-c2ccccn2)cc1`, the IC50 in [1] was > 10000 nM.

In series [1], `c1ccc(-c2cc(-c3ccncc3)c(-c3cccs3)[nH]2)cc1` had an IC50 of 120 nM.

`N#Cc1ccc(-c2[nH]c(-c3ccccc3)cc2-c2ccncc2)cc1` showed an IC50 in [1] of 450 nM.

`Fc1ccc(-c2[nH]c(-c3ccc(Cl)cc3)cc2-c2ccncc2)cc1` registered an IC50 in [1] of 200 nM.

Consider `O=c1c(-c2ccc(F)cc2)c(-c2ccncc2)[nH]n1-c1ccc(Cl)cc1`, for which 35 nM corresponded to half-maximal inhibition in series [1] (IC50).

Regarding `C[S+]([O-])c1ccc(-c2cc(-c3ccncc3)c(-c3ccc(F)cc3)[nH]2)cc1` (configuration not stated), the IC50 in series [2] worked out at 470 nM; in series [1] it was 5.1 nM; in series [3] it was 8.1 nM; in series [5] it was 1500 nM; in [6] it was 7610 nM; in series [9] it was 5 nM. Besides, the IC50 in [28] was found to be 16000 nM. This compound also had a bioavailability in [15] of 25.6%. For the same compound, the half-life worked out at 0.652 h in [16], 1.06 h in series [17], 2.04 h in series [21] and 2.59 h in [27]. In series [4], the ID50 was found to be 7.4 mg kg-1 b.i.d. In addition, the Tmax in [18] is 1 h; in series [26], 1.05 h. Moreover, the Vd is 1.81 L/kg in series [19] and 2.23 L/kg in series [24]. For the same compound, the values for the Cmax in series [20] and in series [23] were 5.71 µM and 0.31 µM, respectively. Further, in [22], the inhibition in vivo at 20 mg/kg stood at 90%. The compound further returned an inhibition in series [25] of 42%. The AUC in series [8] turned out to be 0.81 µM·h; in series [12] it was 10 µM·h; in series [13], 2.1 µM·h; in series [14], 16.7 µM·h. In addition, the values for the Clp in series [29] and in series [30] were 42.6 mL/min/kg and 22.5 mL/min/kg, respectively.

In the case of `C[S+]([O-])c1ccc(-c2cc(-c3ccnc4ccccc34)c(-c3ccc(F)cc3)[nH]2)cc1` (configuration not stated), the IC50 in series [1] was found to be 114 nM.
